From US20140194361A1, “Vault Agents for Treating Chronic Kidney Disease” (priority 2010, published 2014)
Entries after “also recorded” stand apart in the source; their conditions may differ. No end group written: not given here.

Assays:
[1] = tested on: extracellular matrix and signaling proteins of DN; assay: expression of extracellular matrix and signaling proteins of DN in cells (immunoblotting); assay type: cell-based; conditions: for expression of extracellular matrix and signaling proteins of DN: serum-starved 48 h, treated 48 h, vs RGE/CRGE peptides
Procedure: Cells were serum-starved for 48 h and then untreated or treated with or without the unmodified RGD/RGE and modified CRGD/CRGE peptide for 48 h.

[2] = tested on: type 2 diabetic db/db mice; assay: prevention of progression of early DN in type 2 diabetic db/db mice; assay type: in vivo
Excerpt: There was no change in blood pressure or plasma glucose in either the diabetic or non-diabetic animals.
There was no change in creatinine clearance in the cyclic-GRGESP-control peptide treated diabetic animals
In addition, glomerular volume measured by fractional volume of expansion by electron microscopy was normalized, p<0.05 after 12 weeks of treatment.
(§1) We investigated the ability of cyclic GRGDSP vs. GRGESP in a pilot study to prevent accumulation of glomerular lesions in early DN in 20 week old diabetic type 2 db/db vs non-diabetic db/m and diabetic type 1 Ins2Akita+ vs. non-diabetic Ins2+/+ mice with GRGESP and […] and observed up to 52% reduction in albuminuria in the type 2 diabetic mice (FIGS. 1-2) and ˜70% reduction in albuminuria in the type 1 diabetic mice (FIG. 6).

[3] = tested on: aged type 2 diabetic db/db mice; assay: regression of established DN in aged type 2 diabetic db/db mice; assay type: in vivo
[4] = tested on: type 1 diabetic Ins2Akita/+ mice; assay: prevention of progression of DN in type 1 diabetic Ins2Akita/+ mice; assay type: in vivo
Procedure: as §1

integrin = assay: experimentally verified RGD inhibitors blocking fibronectin adhesion to integrin
Excerpt: Preferably, the synthetic analog inhibitors should have higher affinity to the integrin than the RGD loop of fibronectin. […] These two cyclic peptides were also used as reference structures to construct new inhibitors.
Combining the experimental results with the data obtained from our calculations we were able to predict the efficiency of the various inhibitors and to determine which structure is the most favorable fragment with regard to integrin binding energy.

[5] = 2400 μg/kg, after 4, 8 and 12 weeks of treatment
[6] = type 2 and type 1 diabetic mice, 400-2400 μg/kg

For “CGRGDSP (also: cyclic peptide, ring closure not given here) [cyclic GRGDSP peptide with an added cysteine linker (free cysteine residue)]”, the “integrin-mediated cellular signaling by TGF-β, AKT and STAT3” value ([1]; kinetic studies and immunoblotting) was “inhibition” and the “expression of extracellular matrix and signaling proteins of DN” value [1] was “significantly reduced”.

GRGDSP [cyclic-GRGDSP] was tested, and the “amelioration of albumin excretion rate” value [2, 5] was “up to 52%”, the “glomerular extracellular matrix expansion (periodic acid Schiff staining)” value ([2]; after 12 weeks of treatment) was “prevented glomerular extracellular matrix expansion” and the “glomerular volume (fractional volume of expansion by electron microscopy)” value ([2]; after 12 weeks of treatment) was “normalized”. For the same substance, the “albumin excretion rate in control animals” value ([2]; control type 2 diabetic animals, 2400 μg/kg) was “did not alter”, the albumin excretion rate ([2]; db/db vs db/m mice, 400-2400 μg/kg, after 4 weeks of treatment, vs cyclic-GRGESP control) was “ameliorating albumin excretion rate in a dose dependent manner” and the “DN signaling proteins by Western blot” value [2, 6] was “significant reduction”. For the same substance, the “glomerular expression extracellular matrix by Periodic Acid Schiff and electron microscopy” value [2, 6] was “significant reduction”, the reduction in albuminuria ([2]; type 2 diabetic mice, 400-2400 μg/kg) was “up to 52%” and the reduction in albuminuria ([3]; 21-week-old db/db mice, 2400-4800 μg/kg, 4 weeks i.p.) was “up to 71%”. For the same substance, the “expression of fibronectin, collagen I, collagen IV, TGF-β, ERK/MAPK and Nox4 (Western blot of kidney cortical tissues)” value ([3]; 2400-4800 μg/kg, 4 weeks i.p.) was “reduced expression”, the “glomerulosclerosis index (Periodic Schiff stained kidney section)” value ([3]; 2400-4800 μg/kg, 4 weeks i.p.) was “significant reduction” and the mesangial expansion ([3]; 2400-4800 μg/kg, 4 weeks i.p.) was “reduced mesangial expansion”. For the same substance, the “reduction of albumin excretion rate” value ([3]; 3600 and 4800 μg/kg, 4 weeks intraperitoneal, dose-dependent) was “up to 71%”, the “glomerular extracellular matrix proteins (fibronectin, collagen I and collagen IV)” value ([3]; 3600 and 4800 μg/kg, 4 weeks, dose-dependent) was “reduced glomerular extracellular matrix proteins” and the “expression of known signaling molecules of DN” value ([3]; 3600 and 4800 μg/kg, dose-dependent) was “reduced the expression”. For the same substance, the “expression of extracellular matrix and signaling proteins of DN” value [1] was “significantly reduced”, the “albuminuria measured as albumin-to-creatinine ratio” value [4, 5] was “ameliorated albuminuria” and the “glomerular expression of extracellular matrix proteins (fibronectin, collagen I and collagen IV)” value ([4]; after 12 weeks of treatment) was “reduced glomerular expression of extracellular matrix proteins”. It also gave a reduction in albuminuria ([4]; type 1 diabetic mice, 400-2400 μg/kg) of ~70%.

In the case of cyc-RGDSPCG, the “efficiency as inhibitor (experimentally verified)” value (“efficiency as inhibitor” below) (integrin) is reported as “efficient inhibitors”.

For cyc-RGDSPG, the “efficiency as inhibitor” value (integrin) was “successful candidate of inhibitors; also recorded: efficient inhibitors”.

With cyc-RGDSPSG (cyclised or stapled) the “efficiency as inhibitor” value (integrin) was “efficient inhibitors”.
